The assay relates to PKC mediated IL-2 production in human primary T cells. Nature of the assay: IL-2 ELISA, human primary T cell, anti CD3+CD28+ (whole cell functional assay for PKC mediated IL-2 production). Format: cell-based. The procedure: Human primary T cells were prepared as follows. Fresh PBMC's from All Cells (Cat # PB002) were re-suspended in RPMI (RPMI-1640 with L-Glutamine; Mediatech, Inc., Herndon Va., cat. #10-040-CM) with 10% FBS and seeded into flasks and incubated at 37° C. for 2 hours to allow the monocytes to adhere. The non-adherent cells were then centrifuged and re-suspended in RPMI medium containing 40 U/ml IL2 and seeded into a flask pre-coated with 1 μg/ml aCD3 and 5 ug/ml aCD28 (Anti-Human CD3, BD Pharmingen Catalog #555336, Anti-Human CD28, Beckman Coulter Catalog #IM1376). The cells were stimulated for 3-4 days, then transferred to a fresh flask and maintained in RPMI (RPMI-1640 with L-Glutamine; Mediatech, Inc., Herndon Va., cat. #10-040-CM) with 10% FBS and 40 U/ml IL-2.
Human primary T cells (100,000 cells per well) were pre-incubated with or without test compound in RPMI-1640 with L-Glutamine and 10% FBS for 1 hour at 37° C. Cells were then stimulated by transferring them to round-bottom 96-well plates pre-coated with 1 μg/ml aCD3 and 5 μg/ml aCD28. For counter assay, cells were instead stimulated by adding 8× stock solutions of PMA and ionomycin in RPMI-1640 with L-Glutamine and 10% FBS (for final concentrations of 0.5 ng/ml PMA and 0.1 μM ionomycin, both from Calbiochem). Cells were incubated at 37° C. for 24 hours before 100 μL supernatants were harvested for quantification of IL-2 by ELISA using Human IL-2 Duoset ELISA Kit from R and D Systems, Cat. # DY202E.
Compounds 1-156 were tested in a whole cell functional assay for PKC mediated IL-2 production as follows. Human primary T cell isolation and culture: Human primary T cells were prepared as follows. Whole blood was obtained from a healthy volunteer, mixed 1:1 with PBS, layered on to Ficoll Hypaque (Amersham Pharmacia Biotech, Piscataway, N.J., Catalog #17-1440-03) in 2:1 blood/PBS:ficoll ratio and centrifuged for 30 minutes at 4° C. at 1750 rpm. The cells at the serum: ficoll interface were recovered and washed twice with 5 volumes of PBS. These freshly isolated human peripheral blood mononuclear cells were cultured in Yssel's medium containing 40 U/ml IL2 in a flask pre-coated with 1 μg/ml aCD3 and 5 μg/ml aCD28 (Anti-Human CD3, BD Pharmingen Catalog #555336, Anti-Human CD28, Beckman Coulter Catalog #IM1376). The cells were stimulated for 3-4 days, then transferred to a fresh flask and maintained in RPMI (RPMI-1640 with L-Glutamine; Mediatech, Inc., Herndon Va., cat. #10-040-CM) with 10% FBS and 40 U/ml IL-2. The primary T-cells were then washed twice with PBS to remove the IL-2.
Primary T cell stimulation and IL2 ELISA: Human primary T cells (100,000 cells per well) were pre-incubated with or without test compound in Yssel's medium for 1 hour at 37° C. Cells were then stimulated by transferring them to round-bottom 96-well plates pre-coated with 1 μg/ml aCD3 and 5 μg/ml αCD28. For counter assay, cells were instead stimulated by adding 8× stock solutions of PMA and ionomycin in Yssels (for final concentrations of 0.5 ng/ml PMA and 0.1 uM ionomycin, both from Calbiochem). Cells were incubated at 37° C. for 24 hours before 100 μL supernatants were harvested for quantification of IL-2 by ELISA using Human IL-2 Duoset ELISA Kit from R and D Systems, Cat. # DY202E.

[1] abbreviates: 24 h, human primary T cells stimulated with anti-CD3 + anti-CD28, IL-2 by ELISA, read-out: IC50 for blocking IL-2 production.
The mark [2] stands for this setting: human primary T cells stimulated with anti-CD3 + anti-CD28, 24 h, IL-2 by ELISA, 8 pt, read-out: IL2 ELISA, Human primary T cell, anti-CD3 + CD28, 8 pt (IC50).

Structures are written as SMILES. pIC50: −log10 of the molar value. Where two headings read alike, the source gives them in different places.

As to `Fc1cc(Nc2ncc(F)c(NC[C@@H]3CCCN4CCCC[C@H]34)n2)cc(S(F)(F)(F)(F)F)c1` [Compound 30, 5-fluoro-N2-(3-pentafluorosulfanyl-5-fluoro-phenyl)-N4-(((1S,9aR)-octahydro-1H-quinolizin-1-yl)methyl)pyrimidine-2,4-diamine], the pIC50 under setting [1] is more than 4.52 and the pIC50 under setting [2] is 6.17.
Take `CC1(C)Oc2cc(Nc3ncc(F)c(NC[C@@H]4CCCN5CCCC[C@H]45)n3)cnc2N(CC2CC2)C1=O` [Compound 31, 7-(4-(((1S,9aR)-octahydro-1H-quinolizin-1-yl)methylamino)-5-fluoropyrimidin-2-ylamino)-4-(cyclopropylmethyl)-2,2-dimethyl-2H-pyrido[3,2-b][1,4]oxazin-3(4H)-one]: the pIC50 by setting is: under setting [1], more than 4.52; under setting [2], 6.44.
In the case of `Fc1cc(C2CC2)c(-n2cnnn2)cc1Nc1ncc(Cl)c(NC[C@@H]2CCCN3CCCC[C@H]23)n1` [Compound 32, 5-chloro-N2-(4-cyclopropyl-2-fluoro-5-(1H-tetrazol-1-yl)phenyl)-N4-(((1S,9aR)-octahydro-1H-quinolizin-1-yl)methyl)pyrimidine-2,4-diamine], the pIC50 by setting is: under setting [1], more than 4.52; under setting [2], 6.80.
On the same counts, the results for `Cc1ccc(Nc2ncc(Cl)c(NC[C@@H]3CCCN4CCCC[C@H]34)n2)cc1-n1cnnn1` [Compound 33, 5-chloro-N4-(((1S,9aR)-octahydro-1H-quinolizin-1-yl)methyl)-N2-(4-methyl-3-(1H-tetrazol-1-yl)phenyl)pyrimidine-2,4-diamine] are more than 4.52 and 6.93.
As to `Cn1nnn(-c2cc(Nc3ncc(Cl)c(NC[C@@H]4CCCN5CCCC[C@H]45)n3)c(F)cc2C2CC2)c1=O` [Compound 34, 1-(5-(4-(((1S,9aR)-octahydro-1H-quinolizin-1-yl)methylamino)-5-chloropyrimidin-2-ylamino)-2-cyclopropyl-4-fluorophenyl)-4-methyl-1H-tetrazol-5(4H)-one], the pIC50 is, setting by setting: under setting [1], more than 4.52; under setting [2], 6.17.
In the case of `Cc1nnnn1-c1cc(Nc2ncc(Cl)c(NC[C@@H]3CCCN4CCCC[C@H]34)n2)ccc1F` [Compound 35, 5-chloro-N2-(4-fluoro-3-(5-methyl-1H-tetrazol-1-yl)phenyl)-N4-(((1S,9aR)-octahydro-1H-quinolizin-1-yl)methyl)pyrimidine-2,4-diamine], the pIC50 under setting [1] is more than 4.52 and the pIC50 under setting [2] was 7.27.
With `Cc1nnnn1-c1ccc(F)c(Nc2ncc(Cl)c(NC[C@@H]3CCCN4CCCC[C@H]34)n2)c1` [Compound 36, 5-chloro-N2-(2-fluoro-5-(5-methyl-1H-tetrazol-1-yl)phenyl)-N4-(((1S,9aR)-octahydro-1H-quinolizin-1-yl)methyl)pyrimidine-2,4-diamine], the pIC50 runs as follows: under setting [1], more than 4.52; under setting [2], 6.95.
For `COc1ccc(Nc2ncc(Cl)c(NC[C@@H]3CCCN4CCCC[C@H]34)n2)cc1-n1nnnc1C` [Compound 37, 5-chloro-N4-(((1S,9aR)-octahydro-1H-quinolizin-1-yl)methyl)-N2-(4-methoxy-3-(5-methyl-1H-tetrazol-1-yl)phenyl)pyrimidine-2,4-diamine], the negative logarithm of the IC50 (pIC50) reads like this: under setting [1], more than 4.52; under setting [2], 7.06.
As for `COc1cc(Nc2ncc(Cl)c(NC[C@@H]3CCCN4CCCC[C@H]34)n2)cc(-n2nnnc2C)c1` [Compound 38, 5-chloro-N4-(((1S,9aR)-octahydro-1H-quinolizin-1-yl)methyl)-N2-(3-methoxy-5-(5-methyl-1H-tetrazol-1-yl)phenyl)pyrimidine-2,4-diamine], the pIC50 was more than 4.52 under setting [1] and 6.90 under setting [2].
In the case of `N#Cc1cccc(Nc2ncc(Cl)c(NC[C@@H]3CCCN4CCCC[C@H]34)n2)c1` [Compound 39, 3-(4-(((1S,9aR)-octahydro-1H-quinolizin-1-yl)methylamino)-5-chloropyrimidin-2-ylamino)benzonitrile], the pIC50 by setting is: under setting [1], more than 4.52; under setting [2], 6.38.
On to `Cc1ccc(Nc2ncc(Cl)c(NC[C@@H]3CCCN4CCCC[C@H]34)n2)cc1C#N` [Compound 40, 5-(4-(((1S,9aR)-octahydro-1H-quinolizin-1-yl)methylamino)-5-chloropyrimidin-2-ylamino)-2-methylbenzonitrile], for which the pIC50 runs as follows: under setting [1], more than 4.52; under setting [2], 6.57.
Take `N#Cc1cc(Nc2ncc(Cl)c(NC[C@@H]3CCCN4CCCC[C@H]34)n2)ccc1C1CC1` [Compound 41, 5-(4-(((1S,9aR)-octahydro-1H-quinolizin-1-yl)methylamino)-5-chloropyrimidin-2-ylamino)-2-cyclopropylbenzonitrile]: the pIC50 reads like this: under setting [1], more than 4.52; under setting [2], 7.14.
Take `N#Cc1cc(Nc2ncc(Cl)c(NC[C@@H]3CCCN4CCCC[C@H]34)n2)c(F)cc1C1CC1` [Compound 42, 5-(4-(((1S,9aR)-octahydro-1H-quinolizin-1-yl)methylamino)-5-chloropyrimidin-2-ylamino)-2-cyclopropyl-4-fluorobenzonitrile]: the pIC50 was more than 4.52 under setting [1] and 6.46 under setting [2].
As to `COc1cc(Nc2ncc(Cl)c(NC[C@@H]3CCCN4CCCC[C@H]34)n2)cc(OC)c1` [Compound 43, 5-chloro-N4-(((1S,9aR)-octahydro-1H-quinolizin-1-yl)methyl)-N2-(3,5-dimethoxyphenyl)pyrimidine-2,4-diamine], the pIC50 runs as follows: under setting [1], more than 4.52; under setting [2], 6.38.
In the case of `O=c1[nH]c2cc(Nc3ncc(Cl)c(NC[C@@H]4CCCN5CCCC[C@H]45)n3)ccc2o1` [Compound 44, 5-(4-(((1S,9aR)-octahydro-1H-quinolizin-1-yl)methylamino)-5-chloropyrimidin-2-ylamino)benzo[d]oxazol-2(3H)-one], the pIC50 is more than 4.52 under setting [1] and 5.93 under setting [2].
The matching figures for `Fc1ccc(-n2nnnc2C2CC2)cc1Nc1ncc(F)c(NC[C@@H]2CCCN3CCCC[C@H]23)n1` [Compound 45, N2-(5-(5-cyclopropyl-1H-tetrazol-1-yl)-2-fluorophenyl)-5-fluoro-N4-(((1S,9aR)-octahydro-1H-quinolizin-1-yl)methyl)pyrimidine-2,4-diamine]: more than 4.52 and 6.65.
Take `Fc1cc(C2CC2)c(-n2cnnn2)cc1Nc1nccc(NC[C@@H]2CCCN3CCCC[C@H]23)n1` [Compound 46, N2-(4-cyclopropyl-2-fluoro-5-(1H-tetrazol-1-yl)phenyl)-N4-(((1S,9aR)-octahydro-1H-quinolizin-1-yl)methyl)pyrimidine-2,4-diamine]: the pIC50 reads like this: under setting [1], more than 4.52; under setting [2], 5.95.
Regarding `Cc1ccc(Nc2nccc(NC[C@@H]3CCCN4CCCC[C@H]34)n2)cc1-n1cnnn1` [Compound 47, N4-(((1S,9aR)-octahydro-1H-quinolizin-1-yl)methyl)-N2-(4-methyl-3-(1H-tetrazol-1-yl)phenyl)pyrimidine-2,4-diamine], the negative-log IC50 (pIC50) under setting [1] was more than 4.52 and the pIC50 under setting [2] was 6.19.
As for `Cn1nnn(-c2cc(Nc3nccc(NC[C@@H]4CCCN5CCCC[C@H]45)n3)c(F)cc2C2CC2)c1=O` [Compound 48, 1-(5-(4-(((1S,9aR)-octahydro-1H-quinolizin-1-yl)methylamino)pyrimidin-2-ylamino)-2-cyclopropyl-4-fluorophenyl)-4-methyl-1H-tetrazol-5(4H)-one], the pIC50 runs as follows: under setting [1], more than 4.52; under setting [2], 5.42.
For the compound `Cc1nnnn1-c1cc(Nc2nccc(NC[C@@H]3CCCN4CCCC[C@H]34)n2)ccc1F` [Compound 49, N2-(4-fluoro-3-(5-methyl-1H-tetrazol-1-yl)phenyl)-N4-(((1S,9aR)-octahydro-1H-quinolizin-1-yl)methyl)pyrimidine-2,4-diamine], the negative-log IC50 (pIC50) reads like this: under setting [1], more than 4.52; under setting [2], 6.05.

Source of the values: patent US9913843B2, “Protein kinase C inhibitors and uses thereof” (Rigel Pharmaceuticals, Inc., priority 2012, dated 2018).
